Patent US10626144B2, “Peptide derivatives and uses thereof” (Nosopharm, priority 2014, dated 2020)
Square brackets hold non-standard residues; d marks the D form. Peptide text beside a SMILES is read from it. * marks the point of attachment. Pro(trans-4-F) = O=C(O)[C@@H]1C[C@@H](F)CN1; Dab(3S-OH) = NC[C@H](O)[C@H](N)C(=O)O; ΔZArg = N=C(N)NCC/C=C(\N)C(=O)O; dOrn = NCCC[C@@H](N)C(=O)O; Pip = O=C(O)[C@@H]1CCCCN1; NH(CH2)5NH2 = NCCCCCN*; NH(CH2)4NH2 = NCCCCN*

What was measured:
Assay in all cases: MIC, broth microdilution (CLSI), reference strain
Details in all cases: CAMHB
[1] = test system: Acinetobacter baumannii ATCC 19606
[2] = test system: Staphylococcus aureus ATCC 13709
[3] = test system: Escherichia coli ATCC 25922
[4] = test system: Pseudomonas aeruginosa ATCC 27853

In the case of `N=C(N)NCC/C=C(\NC(=O)[C@H](CCCCN)NC(=O)[C@H](Cc1c[nH]c2ccccc12)NC(=O)[C@@H]1CCCN1C(=O)[C@@H](CCCN)NC(=O)CNC(=O)[C@@H](NC(=O)[C@@H](NC(=O)[C@@H](N)CCCCN)[C@@H](O)CN)[C@@H](O)CN)C(=O)O` [22.41] (H-K[Dab(3S-OH)][Dab(3S-OH)]G[dOrn]PWK[ΔZArg]-OH), the “Ab: MIC Acinetobacter baumannii ATCC 19606” value [1] is reported as “− (>32 μg/mL)”, the “Sa: MIC Staphylococcus aureus ATCC 13709” value [2] is reported as “++ (≤8 μg/mL)” and the “Ec: MIC Escherichia coli ATCC 25922” value [3] is reported as “++ (≤8 μg/mL)”. For the same compound, the “Pa: MIC Pseudomonas aeruginosa ATCC 27853” value [4] was “− (>32 μg/mL)”.
In the case of `N=C(N)NCC/C=C(\NC(=O)[C@H](CCCCN)NC(=O)[C@H](Cc1cnc[nH]1)NC(=O)[C@@H]1CCCN1C(=O)[C@@H](CCCN)NC(=O)CNC(=O)CNC(=O)[C@@H](NC(=O)[C@@H](N)CCCCN)[C@@H](O)CN)C(=O)N[C@@H](CCCCN)C(=O)NCCCCN` [23.1] (H-K[Dab(3S-OH)]GG[dOrn]PHK[ΔZArg]K-{NH(CH2)4NH2}), the “Ab: MIC Acinetobacter baumannii ATCC 19606” value [1] is reported as “− (>32 μg/mL)”, the “Sa: MIC Staphylococcus aureus ATCC 13709” value [2] is reported as “++ (≤8 μg/mL)” and the “Ec: MIC Escherichia coli ATCC 25922” value [3] is reported as “++ (≤8 μg/mL)”. The “Pa: MIC Pseudomonas aeruginosa ATCC 27853” value [4] was “− (>32 μg/mL)”.
With `C[C@H](NC(=O)[C@@H](NC(=O)[C@@H](N)CCCCN)[C@@H](O)CN)C(=O)NCC(=O)N[C@H](CCCN)C(=O)N1CCC[C@H]1C(=O)N[C@@H](Cc1cnc[nH]1)C(=O)N[C@@H](CCCCN)C(=O)N/C(=C\CCNC(=N)N)C(=O)N[C@@H](CCCCN)C(N)=O` [24.2] (H-K[Dab(3S-OH)]AG[dOrn]PHK[ΔZArg]K-NH2) the “Ab: MIC Acinetobacter baumannii ATCC 19606” value [1] was “− (>32 μg/mL)”, the “Sa: MIC Staphylococcus aureus ATCC 13709” value [2] was “++ (≤8 μg/mL)” and the “Ec: MIC Escherichia coli ATCC 25922” value [3] was “++ (≤8 μg/mL)”. For the same compound, the “Pa: MIC Pseudomonas aeruginosa ATCC 27853” value [4] was “+ (≤32 μg/mL)”.
In the case of `C[C@H](NC(=O)[C@@H](NC(=O)[C@@H](N)CCCCN)[C@@H](O)CN)C(=O)NCC(=O)N[C@H](CCCN)C(=O)N1CCCC[C@H]1C(=O)N[C@@H](Cc1cnc[nH]1)C(=O)N[C@@H](CCCCN)C(=O)N/C(=C\CCNC(=N)N)C(=O)N[C@@H](CCCCN)C(=O)NCCCCN` [24.3] (H-K[Dab(3S-OH)]AG[dOrn][Pip]HK[ΔZArg]K-{NH(CH2)4NH2}), the “Ab: MIC Acinetobacter baumannii ATCC 19606” value [1] is reported as “− (>32 μg/mL)”, the “Sa: MIC Staphylococcus aureus ATCC 13709” value [2] is reported as “++ (≤8 μg/mL)” and the “Ec: MIC Escherichia coli ATCC 25922” value [3] is reported as “++ (≤8 μg/mL)”. For the same compound, the “Pa: MIC Pseudomonas aeruginosa ATCC 27853” value [4] was “+ (≤32 μg/mL)”.
In the case of `C[C@H](NC(=O)[C@@H](NC(=O)[C@@H](N)CCCCN)[C@@H](O)CN)C(=O)NCC(=O)N[C@H](CCCN)C(=O)N1C[C@H](F)C[C@H]1C(=O)N[C@@H](Cc1cnc[nH]1)C(=O)N[C@@H](CCCCN)C(=O)N/C(=C\CCNC(=N)N)C(=O)N[C@@H](CCCCN)C(=O)NCCCCN` [24.4] (H-K[Dab(3S-OH)]AG[dOrn][Pro(trans-4-F)]HK[ΔZArg]K-{NH(CH2)4NH2}), the “Ab: MIC Acinetobacter baumannii ATCC 19606” value [1] is reported as “+ (≤32 μg/mL)”, the “Sa: MIC Staphylococcus aureus ATCC 13709” value [2] is reported as “++ (≤8 μg/mL)” and the “Ec: MIC Escherichia coli ATCC 25922” value [3] is reported as “++ (≤8 μg/mL)”. For the same compound, the “Pa: MIC Pseudomonas aeruginosa ATCC 27853” value [4] was “+ (≤32 μg/mL)”.
`C[C@H](NC(=O)[C@@H](NC(=O)[C@@H](N)CCCCN)[C@@H](O)CN)C(=O)NCC(=O)N[C@H](CCCN)C(=O)N1CCC[C@H]1C(=O)N[C@@H](Cc1cnc[nH]1)C(=O)N[C@@H](CCCCN)C(=O)N/C(=C\CCNC(=N)N)C(=O)N[C@@H](CCCCN)C(=O)NCCCCCN` [24.6] (H-K[Dab(3S-OH)]AG[dOrn]PHK[ΔZArg]K-{NH(CH2)5NH2}) was tested, and the “Ab: MIC Acinetobacter baumannii ATCC 19606” value [1] was “+ (≤32 μg/mL)”, the “Sa: MIC Staphylococcus aureus ATCC 13709” value [2] was “++ (≤8 μg/mL)” and the “Ec: MIC Escherichia coli ATCC 25922” value [3] was “++ (≤8 μg/mL)”. The “Pa: MIC Pseudomonas aeruginosa ATCC 27853” value [4] was “++ (≤8 μg/mL)”.
With `C[C@H](NC(=O)/C(=C/CCNC(=N)N)NC(=O)[C@H](CCCCN)NC(=O)[C@H](Cc1cnc[nH]1)NC(=O)[C@@H]1CCCN1C(=O)[C@@H](CCCN)NC(=O)CNC(=O)[C@H](C)NC(=O)[C@@H](NC(=O)[C@@H](N)CCCCN)[C@@H](O)CN)C(N)=O` [24.7] (H-K[Dab(3S-OH)]AG[dOrn]PHK[ΔZArg]A-NH2) the “Ab: MIC Acinetobacter baumannii ATCC 19606” value [1] was “− (>32 μg/mL)”, the “Sa: MIC Staphylococcus aureus ATCC 13709” value [2] was “++ (≤8 μg/mL)” and the “Ec: MIC Escherichia coli ATCC 25922” value [3] was “++ (≤8 μg/mL)”. For the same compound, the “Pa: MIC Pseudomonas aeruginosa ATCC 27853” value [4] was “− (>32 μg/mL)”.
